Broadly, the melting point is the temperature, or range, at which the solid turns liquid.

Structures can show the parent of a compound that is named as a salt.

In the case of `CCC(=NOC)c1ccc(OCCCN2CCCCC2C)cc1.Cl` (stereo not shown), the melting point fell in the range of 185 to 187 °C.
Consider `C[C@@H]1CCC[C@H](C)N1CCCCCOc1ccccc1.Cl`, for which the melting point is 135 to 136 °C.
With `CC1CCCN(CCCOc2ccc(C#N)cc2)C1.Cl` (stereo not shown), the melting point lay in the range of 171 to 173 °C.
As to `CC(=O)CCc1ccc(OCCCN2CCCCC2)cc1.Cl`, the melting point lay in the range of 148 to 150 °C.
The value for `CC1CCCCN1CCCOc1ccc(C#N)cc1.Cl` (stereo not shown) was 177 to 180 °C.
The value for `CC1CCN(CCCOc2ccc(C#N)cc2)CC1` (as salt: hydrochloride) [Example 78, 1-[3-(4-cyanophenoxy)propyl]-4-methylpiperidine] was 200 to 202 °C.
`N#Cc1ccc(OCCCN2CCCCC2)cc1F` (as salt: hydrochloride) [Example 82, 1-[3-(4-cyano-3-fluorophenoxy)propyl]piperidine]: the melting point lay within 157 to 159 °C.
The result for `CC1CCCCN1CCCOc1ccc(C#N)cc1` (stereo not shown) (as salt: hydrochloride) [Example 98] reads 151 to 153 °C; that for `c1ccc(OCCCCCN2CCCCC2)cc1` (as salt: oxalate) [Example 1, 1-(5-phenoxypentyl)-piperidine], 143 to 145 °C.
The result for `c1ccc(OCCCCCN2CCCC2)cc1` (as salt: oxalate) [Example 2, 1-(5-phenoxypentyl)-pyrrolidine] reads 153 to 155 °C.
The result for `CCN(C)CCCCCOc1ccccc1` (as salt: oxalate) [Example 3, N-methyl-N-(5-phenoxypentyl)-ethylamine] reads 122 to 124 °C.
In turn, `c1ccc(OCCCCCN2CCCCCC2)cc1` (as salt: oxalate) [Example 5, N-(5-phenoxypentyl)-hexamethyleneimine] came in with a melting point of 132 to 134 °C.
As for `CCCN(CC)CCCCCOc1ccccc1` (as salt: oxalate) [Example 6, N-ethyl-N-(5-phenoxypentyl)-propylamine], the melting point was in the range of 90 to 91 °C.
In turn, `CC1CCCCN1CCCCCOc1ccccc1` (stereo not shown) (as salt: oxalate) [Example 7, 1-(5-phenoxypentyl)-2-methyl-piperidine] returned a melting point of 80 to 83 °C.
The value for `CCCC1CCN(CCCCCOc2ccccc2)CC1` (as salt: oxalate) [Example 8, 1-(5-phenoxypentyl)-4-propyl-piperidine] was 165 to 166 °C; that for `CC1CCN(CCCCCOc2ccccc2)CC1` (as salt: oxalate) [Example 9, 1-(5-phenoxypentyl)-4-methyl-piperidine] was 151 to 152 °C.
The result for `CC(=O)N1CCN(CCCCCOc2ccccc2)CC1` (as salt: oxalate) [Example 11, 1-acetyl-4-(5-phenoxypentyl)-piperazine] reads 186 to 188 °C; that for `C[C@@H]1C[C@H](C)CN(CCCCCOc2ccccc2)C1` (as salt: oxalate) [Example 13, 1-(5-phenoxypentyl)-3,5-cis-dimethyl-piperidine], 154 to 155 °C; that for `CCOC(=O)C1CCN(CCCCCOc2ccccc2)CC1` (as salt: oxalate) [Example 15, 4-carboethoxy-1-(5-phenoxypentyl)-piperidine], 149 to 150 °C.
Compound `CCOC(=O)C1CCCN(CCCCCOc2ccccc2)C1` (stereo not shown) (as salt: oxalate) [Example 16, 3-carboethoxy-1-(5-phenoxypentyl)-piperidine] registered a melting point of 117 to 118 °C.
`C1=CCN(CCCCCOc2ccccc2)CC1` (as salt: oxalate) [Example 17, 1-(5-phenoxypentyl)-1,2,3,6-tetrahydropyridine] gave a melting point of 177 to 179 °C.
`Clc1ccc(OCCCCCN2CCCC2)cc1` (as salt: oxalate) [Example 19, 1-[5-(4-chlorophenoxy)-pentyl]-pyrrolidine] yielded a melting point of 139 to 141 °C.
As to `COc1ccc(OCCCCCN2CCCC2)cc1` (as salt: oxalate) [Example 20, 1-[5-(4-methoxyphenoxy)-pentyl]-pyrrolidine], the melting point is 115 to 116 °C.
The value for `Cc1ccc(OCCCCCN2CCCC2)cc1` (as salt: oxalate) [Example 21, 1-[5-(4-methylphenoxy)-pentyl]-pyrrolidine] was 138 to 140 °C; that for `N#Cc1ccc(OCCCCCN2CCCC2)cc1` (as salt: oxalate) [Example 22, 1-[5-(4-cyanophenoxy)-pentyl]-pyrrolidine] was 129 to 130 °C.
The value for `c1ccc2c(OCCCCCN3CCCC3)cccc2c1` (as salt: oxalate) [Example 24, 1-[5-(1-naphthyloxy)-pentyl]-pyrrolidine] was 160 to 163 °C.
The compound `Clc1cccc(OCCCCCN2CCCC2)c1` (as salt: oxalate) [Example 25, 1-[5-(3-chlorophenoxy)-pentyl]-pyrrolidine] had a melting point of 131 to 132 °C.
In the case of `c1ccc(-c2ccc(OCCCCCN3CCCC3)cc2)cc1` (as salt: oxalate) [Example 26, 1-[5-(4-phenylphenoxy)-pentyl]-pyrrolidine], the melting point lay within 189 to 190 °C.
In the case of `c1cc2c(cc1OCCCCCN1CCCC1)CCCC2` (as salt: oxalate) [Example 27, 1-{5-[2-(5,6,7,8-tetrahydronaphthyl)-oxy]-pentyl}-pyrrolidine], the melting point lay within 131 to 132 °C.
The result for `c1cc2c(c(OCCCCCN3CCCC3)c1)CCCC2` (as salt: oxalate) [Example 30, 1-{5-[1-(5,6,7,8-tetrahydronaphthyl)-oxy]-pentyl}-pyrrolidine] reads 148 to 149 °C; that for `c1ccc(OCCCCN2CCCC2)cc1` (as salt: oxalate) [Example 31, 1-(4-phenoxybutyl)-pyrrolidine], 143 to 144 °C.
The result for `c1ccc(OCCCCCCN2CCCC2)cc1` (as salt: oxalate) [Example 32, 1-(6-phenoxyhexyl)-pyrrolidine] reads 146 to 147 °C; that for `c1ccc(SCCCCCN2CCCC2)cc1` (as salt: oxalate) [Example 33, 1-(5-phenylthiopentyl)-pyrrolidine], 150 to 152 °C; that for `c1ccc(SCCCCN2CCCC2)cc1` (as salt: oxalate) [Example 34, 1-(4-phenylthiobutyl)-pyrrolidine], 114 to 116 °C.
The value for `O=[N+]([O-])c1cccc(OCCCCCN2CCCC2)c1` (as salt: oxalate) [Example 36, 1-[5-(3-nitrophenoxy)-pentyl]-pyrrolidine] was 130 to 131 °C.
Compound `Fc1ccc(OCCCCCN2CCCC2)cc1` (as salt: oxalate) [Example 37, 1-[5-(4-fluorophenoxy)-pentyl]-pyrrolidine] showed a melting point of 149 to 150 °C.
For the compound `CC1CCCN(CCCCCOc2ccc([N+](=O)[O-])cc2)C1` (stereo not shown) (as salt: oxalate) [Example 38, 1-[5-(4-nitrophenoxy)-pentyl]-3-methyl-piperidine], the melting point lay in the range of 148 to 149 °C.
The result for `CC(=O)c1ccc(OCCCCCN2CCCC2)cc1` (as salt: oxalate) [Example 39, 1-[5-(4-acetylphenoxy)-pentyl]-pyrrolidine] reads 130 to 134 °C.
The value for `Nc1ccc(OCCCCCN2CCCC2)cc1` (as salt: oxalate) [Example 40, 1-[5-(4-aminophenoxy)-pentyl]-pyrrolidine] was 120 to 122 °C.
The result for `N#Cc1cccc(OCCCCCN2CCCC2)c1` (as salt: oxalate) [Example 41, 1-[5-(3-cyanophenoxy)-pentyl]-pyrrolidine] reads 119 to 120 °C.
`CCN(CC)CCCOc1ccc([N+](=O)[O-])cc1` (as salt: oxalate) [Example 42, N-[3-(4-nitrophenoxy)-propyl]-diethylamine]: the melting point lay in the range of 160 to 161 °C.
The value for `CCN(CC)CCCOc1ccc(C#N)cc1` (as salt: oxalate) [Example 43, N-[3-(4-cyanophenoxy)-propyl]-diethylamine] was 148 to 150 °C.
`O=C(c1ccccc1)c1ccc(OCCCCCN2CCCC2)cc1` (as salt: oxalate) [Example 44, 1-[5-(4-benzoylphenoxy)-pentyl]-pyrrolidine] returned a melting point of 141 to 142 °C.
The result for `O=C(Cc1ccccc1)c1ccc(OCCCCCN2CCCC2)cc1` (as salt: oxalate) [Example 45, 1-{5-[4-(phenylacetyl)-phenoxy]-pentyl}pyrrolidine] reads 177 to 178 °C; that for `CCN(CC)CCCOc1ccc(C(C)=O)cc1` (as salt: oxalate) [Example 46, N-[3-(4-acetylphenoxy)-propyl]-diethylamine], 108 to 110 °C; that for `c1ccc(Oc2ccc(OCCCCCN3CCCC3)cc2)cc1` (as salt: oxalate) [Example 48, 1-[5-(4-phenoxyphenoxy)-pentyl]-pyrrolidine], 135 to 136 °C.
For `O=C(Nc1ccc(OCCCCCN2CCCC2)cc1)c1ccccc1` (as salt: oxalate) [Example 49, 1-[5-(4-N-benzamidophenoxy)-pentyl]-pyrrolidine], the melting point fell in the range of 176 to 178 °C.
The result for `CC(O)c1ccc(OCCCCCN2CCCC2)cc1` (stereo not shown) (as salt: oxalate) [Example 50, 1-{5-[4-(1-hydroxyethyl)-phenoxy]-pentyl}-pyrrolidine] reads 102 to 104 °C; that for `CCN(CC)CCCCCOc1ccc(C#N)cc1` (as salt: oxalate) [Example 51, 1-[5-(4-cyanophenoxy)-pentyl]-diethylamine], 120 to 122 °C.
As for `N#Cc1ccc(OCCCCCN2CCCCC2)cc1` (as salt: oxalate) [Example 52, 1-[5-(4-cyanophenoxy)-pentyl]-piperidine], the melting point fell in the range of 115 to 116 °C.
The value for `CN(C)CCCCCOc1ccc(C#N)cc1` (as salt: oxalate) [Example 53, N-[5-(4-cyanophenoxy)-pentyl]-dimethylamine] was 148 to 149 °C.
On to `CN(C)CCCOc1ccc(C#N)cc1` (as salt: oxalate) [Example 55, N-[3-(4-cyanophenoxy)-propyl]-dimethylamine], for which the melting point lay within 166 to 167 °C.

The values are drawn from US20060247223A1, “Non-imidazole alkylamines as histamine H3- receptor ligands and their therapeutic applications” (priority 1998, published 2006).
